The record followed here is patent publication US4889871A, “Alkoxy-substituted dihydrobenzopyran-2-carboxylate derivatives” (G. D. Searle & Co., priority 1988, dated 1989).

One experiment deals with T1, LTB4 receptor (Homo sapiens, UniProt Q15722).
T1 construct: Neutrophils were purified from venous blood of normal human donors; endogenous in cells; host or cells: purified human blood neutrophils (intact cells)
Briefly: LTB4 receptor binding assay ((3H) LTB4, human neutrophils). The procedure:
Neutrophils (4-6×10^6) in 1 ml Hanks' balanced salt solution containing 10 mM HEPES buffer (HBSS), pH 7.4 and 30 μM nordihydroguaiaretic acid were incubated with 0.6×10^-9 M (^3 H) LTB4 in the presence or absence of test compounds. The incubation was carried out at 0° C. for 45 minutes and terminated by adding 5 ml of ice-cold HBSS followed by rapid filtration of incubation mixture under vacuum through GF/C glass fiber filters. The filters were further washed with 10 ml HBSS and radioactivity was determined. Specific binding was defined as the difference between total binding and nonspecific binding which was not displaced by 10^-7 M unlabeled LTB4. All data refer to specific binding.

A further experiment concerns human neutrophils. Briefly: Human neutrophil degranulation assay (LTB4-induced, myeloperoxidase release). The class given is cell-based. As to conditions: Table 1, LTB4 (5×10^-8 M). The procedure:
Neutrophils were purified from venous blood of normal human donors using standard techniques of dextran sedimentation, centrifugation on Ficoll-paque® (Pharmacia) or Histopaque® sterile solution (Sigma) and hypotonic lysis of erythrocytes (Boyum, A., Isolation of Leukocytes From Human Blood: Further Observations. Scand. J. Lab. Clin. Invest., 21 (Suppl. 97): 31, 1968). The purity of isolated neutrophils was >95%.
Neutrophil degranulation was determined by measuring the release of myeloperoxidase activity into the incubation medium. Neutrophils (3×10^6) in 1 ml HBSS solution were preincubated with cytochalasin B (5 μg) at 37° C. for 5 minutes, followed by preincubation with test compounds for 7 minutes. Neutrophils were then incubated for 2 to 20 minutes with either LTB4 (5×10^-8 M) or the chemotactic peptide f-met-leu-phe (5×10^-6 M) to induce degranulation. Following incubation, samples were centrifuged and myeloperoxidase was extracted from the cell pellets by sonication in phosphate buffer containing 0.4% Triton X-100. Triton X-100 was also added to the supernatants to a concentration of 0.4%. The supernatants and the pellet - extracts were then assayed spectrophotometrically for myeloperoxidase activity by determining the rate of decomposition of H2 O2 with o-dianisidine as hydrogen donor as described by Renlund, et al. (Renlund, D. G., MacFarlane, J. L., Christensen, R. D., Lynch, R. E., and Rothstein, G., A Quantitative And Sensitive Method For Measurement Of Myeloperoxidase, Clinical Research 28:75A, 1980). Myeloperoxidase activity released into the supernatant was expressed as the percent of the average total activity (pellet plus supernatant).

Another experiment deals with T2, guinea pig ileum (Cavia porcellus, UniProt Q2NNR5).
T2 construct: from tissue; host or cells: guinea pig ileum segments
T2 sequence (Q2NNR5 1-340): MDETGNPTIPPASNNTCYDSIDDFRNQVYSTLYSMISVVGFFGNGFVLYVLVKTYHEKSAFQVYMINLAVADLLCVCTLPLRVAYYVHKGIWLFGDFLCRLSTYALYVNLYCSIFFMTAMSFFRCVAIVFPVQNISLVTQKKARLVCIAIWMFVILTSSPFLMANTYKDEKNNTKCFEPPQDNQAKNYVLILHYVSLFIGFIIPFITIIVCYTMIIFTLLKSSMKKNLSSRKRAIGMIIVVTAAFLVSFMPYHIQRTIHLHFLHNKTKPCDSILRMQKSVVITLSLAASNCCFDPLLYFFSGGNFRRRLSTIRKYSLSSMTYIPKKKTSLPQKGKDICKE
Briefly: LTD4 antagonism in guinea pig ileum (contraction). The procedure: Fresh segments of guinea pig ileum were suspended in 2 ml. tissue baths containing oxygenated modified Tyrodes solution. […] The ileum segments were washed and rested between exposures to agonist. Following this, the tissues were incubated with a single concentration of test compound and the agonist dose-response procedure was repeated. The dose ration is a measure of the antagonist's ability to shift the agonist dose-response curve to the right. It is derived as the concentration of agonist necessary to reach a given response level in the present (A') versus the absence (A) of antagonist. For example, if the test concentration of compound had no effect on the agonist-induced response (A'=A) the dose-ratio would approximate 1. […] One dose-ratio value is determined for each strip of ileum used to test antagonist. […] Schild analysis examines the linearity of the function described by the dose-ratios written as log (A'/A) versus antagonist concentration. If linearity is confirmed and the slope approximates -1, inhibition is considered to be competitive. […] This value is considered to be a measure of the affinity of the competitive antagonist.

The mark [1] stands for this setting: relative to Compound III where --OCH3 is replaced with --OH.

T1 sequence (Q15722 whole entry): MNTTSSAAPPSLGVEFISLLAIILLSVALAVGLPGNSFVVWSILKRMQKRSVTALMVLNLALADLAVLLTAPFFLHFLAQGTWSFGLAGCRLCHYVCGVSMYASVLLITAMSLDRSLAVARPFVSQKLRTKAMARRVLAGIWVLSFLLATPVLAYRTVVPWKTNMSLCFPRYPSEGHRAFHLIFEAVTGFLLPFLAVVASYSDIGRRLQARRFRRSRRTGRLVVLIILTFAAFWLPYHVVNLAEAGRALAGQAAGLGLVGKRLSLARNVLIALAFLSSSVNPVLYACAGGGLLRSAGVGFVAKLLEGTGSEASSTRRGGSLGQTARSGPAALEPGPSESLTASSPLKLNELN

In general, IC50 refers to the concentration that gives 50% inhibition. Low readings indicate inhibition by little substance, high ones a need for much substance. For the molecule `CCCc1c(OCCCOc2ccc(C(C)=O)c(OC)c2CCC)ccc2c1OC(C(=O)O)CC2` (centres unmarked) [Example 1, 7-[3-(4-acetyl-3-methoxy-2-propylphenoxy)propoxy]-3,4-dihydro-8-propyl-2H-1-benzopyran-2-carboxylic acid], on LTB4 receptor (0.75 h, read-out: LTB4 Receptor Binding (percent at stated concentration)), the inhibition at 0.3 µM amounted to 50%. For the same molecule, on LTB4 receptor (setting [1]), the “more potent than the --OH compound in LTB4 receptor binding” value is on record as “about 5 ×”. Moreover, inhibition in the experiment on human neutrophils was half-maximal at 1.5 µM (IC50). Also, the Kb on guinea pig ileum (read-out: Guinea Pig Ileum Contraction pA2 (converted)) was at least 0.316 µM. In addition, at guinea pig ileum (setting [1]), the “less active as an LTD4 antagonist in the guinea pig ileum smooth muscle contraction test” value is recorded as “at least 10 ×”.
